Experimental data from patent US4277468A, “11-Methylene steroids, their preparation and pharmaceutical preparations containing them” (Schering Aktiengesellschaft, priority 1979, dated 1981).

Key:
ovulation = assay: Ovulation inhibition test on rats, subcutaneous application, determined by tubal inspection; format: in vivo
Procedure: OVULATION INHIBITION IN RATS AFTER
SUBCUTANEOUS APPLICATION
The ovulation inhibition was determined by tubal inspection.

Androgenic side effects = details: in words, relative to B

With `C#C[C@]1(O)CC[C@H]2[C@@H]3CCC4=CC(=O)CC[C@@H]4[C@H]3C(=C)C[C@@]21CC` [B, 17α-ethynyl-17β-hydroxy-18-methyl-11-methylene-4-estren-3-one, reference compound] the “Ovulation inhibition in rats after subcutaneous application (% inhibition)” value (shortened to “Ovulation inhibition in rats … (% inhibition)”) (ovulation; dose 0.03 mg) was 0% and the “Ovulation inhibition in rats … (% inhibition)” value (ovulation; dose 0.1 mg) was 100%.
With `C=C1C[C@@]2(CC)[C@@H](CC[C@@]2(O)C#CCl)[C@@H]2CCC3=CC(=O)CC[C@@H]3[C@@H]12` [A, 17α-chloroethynyl-17β-hydroxy-18-methyl-11-methylene-4-estren-3-one] the “Ovulation inhibition in rats … (% inhibition)” value (ovulation; dose 0.03 mg) was 83%, the “Ovulation inhibition in rats … (% inhibition)” value (ovulation; dose 0.1 mg) was 100% and the “Ovulation inhibition strength relative to ethynyl compound B” value (ovulation; seen from the table) was “at least three times stronger than ethynyl compound B”. For the same molecule, the “Androgenic side effects compared with B” value (Androgenic side effects) was “less androgenic side effects than B”.
